Laboratory results: patent publication US9422557B2, “Methods and compositions for weed control” (Monsanto Technology LLC, priority 2011, dated 2016)

Legend:
[1] = tested on: Glyphosate-sensitive Palmer amaranth (A. palmeri R-22) plants; assay: Topical treatment of Palmer amaranth with pooled ssDNA ACCase oligonucleotides followed by clethodim; plant height; format: in vivo, Amaranthus palmeri; conditions: clethodim (SelectMax) 272 g ai/ha with 1% COC; ssDNA pool at 16 nmol applied 24 and 48 hours before herbicide where used; height followed up to twelve days after herbicide; four replications; FIG. 1
Experimental: (§1) Glyphosate-sensitive Palmer amaranth (A. palmeri R-22) plants where grown in the greenhouse (30/20 C day/night T; 14 hour photoperiod) in 4 inch square pots containing Sun Gro® Redi-Earth and 3.5 kg/cubic meter Osmocote® 14-14-14 fertilizer. Palmer amaranth plants at 5 to 10 cm in height were treated with a pool of eight 8 short (21-22mer) single-strand antisense oligo DNA polynucleotides (ssDNA) targeting ACCase shown in Table 2 at 16 nmol, formulated in 10 millimolar sodium phosphate buffer (pH 6.8) containing 2% ammonium sulfate and 0.5% Silwet L-77. Plants were treated manually by pipetting 10 μL of polynucleotide solution on four fully expanded mature leaves, for a total of 40 microliters of solution per plant. Twenty-four and forty-eight hours later, the plants were treated with clethodim (SelectMax®, 0.97 lb ai per gallon; ACCase inhibitor) at 272 g ai/ha, crop oil concentrate (COC) at 1% was added to the herbicide treatments. Four replications of each treatment were conducted. Plant height was determined just before ssDNA treatment and at intervals upto twelve days after herbicide treatments to determine effect of the oligonucleotide and herbicide treatments.

[2] = tested on: Glyphosate-sensitive Palmer amaranth (A. palmeri R-22) plants; assay: Follow-up test of individual ACCase oligonucleotides with herbicide 24 hours later; growth effects; format: in vivo, Amaranthus palmeri; conditions: 4 nmol oligonucleotide per plant, four plants; herbicide applied 24 hours after the oligonucleotide treatment
Experimental: as §1
An additional test was conducted to determine which of the ACCase oligonucleotides was responsible for the result. […]

| Compound | reduction in plant height relative to the untreated control [1] [%] | reduction of plant growth relative to untreated plants (average) [2] [%] |
| --- | --- | --- |
| CCSC(C)CC1CC(=O)C(C(CC)=NOC/C=C/Cl)=C(O)C1 (centres unmarked) [clethodim, 2-[1-[[[(2E)-3-chloro-2-propen-1-yl]oxy]imino]propyl]-5-[2-(ethylthio)propyl]-3-hydroxy-2-cyclohexen-1-one] | 0 |  |
| oligo6: single-strand antisense DNA oligo targeting ACCase, GCACCACGAGGATCACAAGAA (DNA, backbone and methylation of C not given here; listed as Amaranthus palmeri) |  | 40 |
